According to patent publication US20250228865A1, “COMPOUNDS FOR ENHANCING READ THROUGH OF GENES CONTAINING PREMATURE TERMINATION CODONS AND METHODS FOR MAKING AND USING THE SAME” (Sanofi US Services Inc., priority 2022, published 2025):
Values joined by “and” are separate entries in the source; they are usually repeats but may differ in a detail not shown here. Identical values can stand only once.

Columns and labels:
[1] = tested on: CFTR R1162X; assay: Functional CFTR channel activity, TECC-24 electrophysiology, 16HBE cells (CFTR R1162X readthrough); type: cell-based, human
Protocol: (§1) 16HBE human bronchial epithelial cells were seeded onto Transwell 24-well filter inserts coated with human collagen type IV. Cells were seeded 7 days prior to functional testing at a density of 1.7×10^5 cells onto the “apical” chamber filter of the Transwell insert. Cells were grown as submerged cultures (200 μL apical/700 μL basolateral) in Minimal Essential Medium (MEM) containing 10% qualified Fetal Bovine Serum and 1% Penicillin/Streptomycin and incubated at 37° C. and 5% CO2. Growth media on cells was replenished with fresh media every 1-3 days prior to test agent treatment day. After 7 days in culture, the CFTR-mediated chloride (Cl^−) equivalent current (Ieq) of the 16HBE cells was recorded, which may typically form electrically tight epithelia with a transepithelial resistance (Rt) of 2000-6000 Ω·cm2 as described below. Forty-eight hours prior to electrophysiological measurements, fresh growth media containing the test agents was applied to both chambers separating filter bound epithelial monolayer.
(§2) On the day of electrophysiology studies, electrodes of a “Multi-(24-channel) transepithelial current clamp amplifier” (MTECC-24 (TECC-24 for short), EP Devices, Belgium) were soaked in an assay buffer (see below for composition) for at least 2 hours using 24-well Transwell plates without inserts. Cell culture media was replaced in the Transwell assay plates with assay buffer (see below) and the plates were mounted onto a custom-built automated robotic assay platform (Yamaha RCX240S controller) with heated plate holders set at 37° C. for 60 min. After equilibration, transepithelial potential difference (PD) and resistance (Rt) was monitoredat ˜5 min intervals using the TECC-24 transepithelial current clamp. Electrode potential differences were monitored for each pair of Ag/AgCl voltage electrodes by taking voltage measurements from a control (“blank”) plate with matching buffer solutions and 16HBE cells that were not treated with any test agent. PD values for each electrode pair were subtracted from the blank plate from that of the test plates at each time point. Ieq was calculated from the corrected PD values and Rt using Ohm's law. Ieq values were slope corrected to account for measurement drift over time using the equation: Slope corrected value=calculated Ieq−((time x slope)+y-intercept) with the slope and y-intercept calculated from the data points captured during the initial baseline period and following addition of the CFTR inhibitor.
(§3) The equivalent current (Ieq) traces associated with CFTR channel activation were plotted as baseline subtracted mean±standard deviation from 3-4 separate wells on the 24-well Transwell (n=3-4). There are 4 recording periods, with the first set of data points recorded baseline Ieq currents prior to sequential activation of available CFTR channels with forskolin (10 μM) and then in combination with potentiator VX-770/ivacaftor (1 μM). Recorded the last set of data points in the presence of CFTR inhibitor CFTRinh-172 (20 μM) to confirm that currents are mediated via activation of CFTR channels. The test agents and control/reference compounds were pre-diluted to 10-fold concentrations in assay buffer and added manually using a multi-channel pipette to both the basolateral and apical side of the membrane (test plates only). Employed CFTR-mediated changes in Ieq, (i.e. forskolin/VX-770 activated currents) to measure functional CFTR surface expression or treatment-related functional rescue of mutant CFTR.
(§4) The magnitude of test agent mediated enhancement of functional CFTR currents was calculated by comparing forskolin/VX-770 stimulated Ieq relative to baseline/CFTRinh-172 Ieq following 48 hour pretreatment with test agent(s) and normalizing to the forskolin/VX-770 stimulated Ieq determined following 48 hour pretreatment with a maximally effective concentration a reference control aminoglycoside agent (typically 110 μM G418). […]

[2] = tested on: CFTR G542X; assay: Functional CFTR channel activity, TECC-24 electrophysiology, 16HBE cells (CFTR G542X readthrough); type: cell-based, human
Protocol: as §1, §2, §3, §4

[3] = tested on: recombinant human CFTR carrying the premature stop codon (PTC) mutation G542X; assay: CFTR-PTC mutant translation readthrough, Nanoluc tagged CFTR luminescence (G542X cell line); type: cell-based; details: 10 μM G418 alone; 48 hours; cell line (G542X or R1162X) not specified
How it was run: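 Readthrough is the 48 h compound-induced luminescence increase scaled to that of maximal G418 (125-250 μM). Compounds run from 50 μM final in 2-fold steps, ±10 μM G418, on 16HBE lines carrying Nanoluc-tagged CFTR G542X (extracellular loop 4 tag) or R1162X (C-terminal tag), with 3 μM VX-809 present.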

[4] = no RTM, eRF3 modulator (CC-90009) 1 uM, G418 10 uM
[5] = no RTM, eRF3 modulator (CC-90009) 10 uM, G418 10 uM
[6] = no RTM, eRF3 modulator (CC-90009) 1 uM, Paramomycin 2000 uM
[7] = RTM conc. —, eRF3 modulator (CC-90009) 1 uM, ELX-02 100 uM
[8] = RTM 1 uM, no eRF3 modulator, ELX-02 100 uM

Q: What does the source list for `CN[C@@H]1[C@@H](O)[C@@H](O[C@@H]2[C@@H](O)[C@H](O[C@H]3O[C@H]([C@@H](C)O)[C@@H](O)[C@H](O)[C@H]3N)[C@@H](N)C[C@H]2N)OC[C@]1(C)O` [Example G418, G418, reference compound]?
A: Currents (% of 110 μM G418 (Max effect)) [1, 4]: 110 % of 110 μM G418 (Max effect) and 95 % of 110 μM G418 (Max effect); Currents (% of 110 μM G418 (Max effect)) [1, 5]: 130 % of 110 μM G418 (Max effect) and 139 % of 110 μM G418 (Max effect); Currents (% of 110 μM G418 (Max effect)) [2, 4]: 130 % of 110 μM G418 (Max effect); Currents (% of 110 μM G418 (Max effect)) [2, 5]: 102 % of 110 μM G418 (Max effect); response (Nanoluc luminescence) relative to a maximally effective concentration of G418 [3]: approximately 10 % of the response observed with a maximally effective concentration of G418 (typically 125-250 μM)

Q: With `NC[C@@H]1O[C@H](O[C@H]2[C@@H](O)[C@H](O[C@@H]3[C@@H](O)[C@H](N)C[C@H](N)[C@H]3O[C@H]3O[C@H](CO)[C@@H](O)[C@H](O)[C@H]3N)O[C@@H]2CO)[C@H](N)[C@@H](O)[C@@H]1O` [Paramomycin, paramomycin, reference compound] as the compound, how does the “Currents (% of 110 μM G418 (Max effect))” value [1, 6] read?
A: 55 % of 110 μM G418 (Max effect)

Q: What about the “Currents (% of 110 μM G418 (Max effect))” value [2, 6] of the same compound?
A: 65 % of 110 μM G418 (Max effect)

Q: What does the source list for `C[C@H](N)[C@H]1O[C@@H](OC2C(O)C(N)CC(N)C2OC2OC([C@@H](C)O)C(O)C(O)C2N)C(O)C1O` (stereo partly drawn) [ELX-02, reference compound]?
A: Currents (% of 110 μM G418 (Max effect)) [1, 7]: 198 % of 110 μM G418 (Max effect); Currents (% of 110 μM G418 (Max effect)) [2, 7]: 191 % of 110 μM G418 (Max effect)

Q: With `OCc1ccn(-c2ncc(OCc3c(Cl)cccc3Cl)cn2)n1` [drawing 825] as the compound, how does the “Currents (% of 110 μM G418 (Max effect))” value [2, 8] read?
A: 94 % of 110 μM G418 (Max effect)

Q: For `O=C1O[C@H](CO)CN1c1ccc(OCc2c(Cl)cccc2Cl)cc1` [drawing 841], which “Currents (% of 110 μM G418 (Max effect))” value ([2]; RTM 5 uM, no eRF3 modulator, G418 10 uM) is on record?
A: 54 % of 110 μM G418 (Max effect)

Q: For `Cc1cccc(C(F)(F)F)c1COc1ccc(-c2nc(CO)n[nH]2)cc1` [drawing 828], which “Currents (% of 110 μM G418 (Max effect))” value [2, 8] is on record?
A: 109 % of 110 μM G418 (Max effect)

Q: `Cc1cccc(C(F)(F)F)c1COc1ccc(N2CC(CO)OC2=O)cc1` (stereo not drawn) [drawing 839] was tested. Which “Currents (% of 110 μM G418 (Max effect))” value ([2]; RTM 1 uM, no eRF3 modulator, G418 10 uM) did it give?
A: 76 % of 110 μM G418 (Max effect)

Q: How did the “Currents (% of 110 μM G418 (Max effect))” value ([2]; RTM 0.5 uM, no eRF3 modulator, G418 10 uM) turn out when `OCc1cn(-c2ncc(OCc3c(Cl)cccc3Cl)cn2)cn1` [drawing 821] was run?
A: 78 % of 110 μM G418 (Max effect)

Q: For `Cc1cccc(C(F)(F)F)c1COc1ccc(-c2nc(CO)n[nH]2)cc1` [drawing 829], which “Currents (% of 110 μM G418 (Max effect))” value [2, 7] is on record?
A: 83 % of 110 μM G418 (Max effect)

Q: How did the “Currents (% of 110 μM G418 (Max effect))” value ([2]; RTM 3 uM, eRF3 modulator (CC-90009) 1 uM, ELX-02 100 uM) turn out when `OCc1ncn(-c2ncc(OCc3c(Cl)cccc3C(F)(F)F)cn2)n1` [drawing 836] was run?
A: 263 % of 110 μM G418 (Max effect)

Q: `OCc1ncn(-c2ncc(OCc3c(Cl)cccc3C(F)(F)F)cn2)n1` [drawing 834] was tested. Which “Currents (% of 110 μM G418 (Max effect))” value ([2]; RTM 3 uM, no eRF3 modulator, ELX-02 100 uM) did it give?
A: 111 % of 110 μM G418 (Max effect)

Q: How did the “Currents (% of 110 μM G418 (Max effect))” value [2, 7] turn out when `OCc1ccn(-c2ncc(OCc3c(Cl)cccc3Cl)cn2)n1` [drawing 826] was run?
A: 83 % of 110 μM G418 (Max effect)
